# Values of other authors, collected in patent US12433928B2, “Therapeutic treatment for the coronavirus disease COVID-19” (priority 2020, dated 2025).
# Tested on: herpes simplex virus type 1 (HSV-1)
# Conditions: certain viruses, e.g. HSV-1 in vitro
compound,measurement,value
Cc1ccc(C(C)C)c(O)c1 [thymol],antiviral activity in medical studies,antiviral activity and effectiveness
